Measurements published in patent US12692223B2, “Phenyl-sulfamoyl-benzoic acid derivatives as ERAP1-modulators” (GREY WOLF THERAPEUTICS LIMITED, priority 2021, dated 2026).

Each molecule was assayed against T1, ERAP1 (Homo sapiens, UniProt Q9NZ08) (assay: ERAP1 mediated hydrolysis of an amide substrate measured in a biochemical system (10-mer inhibition assay)). Settings: purified ERAP1(37-941)-10His; 10-mer substrate; 23° C. for 1 h; excitation 279 nm, emission 355 nm; read-out: IC50 vs Decapeptide WRVYEKC(Dnp)ALK-acid (where Dnp is Dinitrophenyl maleimide) (10-mer).
T1 construct: Purified ERAP1(37-941)-10His (ERAP1)
T1 sequence (Q9NZ08 37-941): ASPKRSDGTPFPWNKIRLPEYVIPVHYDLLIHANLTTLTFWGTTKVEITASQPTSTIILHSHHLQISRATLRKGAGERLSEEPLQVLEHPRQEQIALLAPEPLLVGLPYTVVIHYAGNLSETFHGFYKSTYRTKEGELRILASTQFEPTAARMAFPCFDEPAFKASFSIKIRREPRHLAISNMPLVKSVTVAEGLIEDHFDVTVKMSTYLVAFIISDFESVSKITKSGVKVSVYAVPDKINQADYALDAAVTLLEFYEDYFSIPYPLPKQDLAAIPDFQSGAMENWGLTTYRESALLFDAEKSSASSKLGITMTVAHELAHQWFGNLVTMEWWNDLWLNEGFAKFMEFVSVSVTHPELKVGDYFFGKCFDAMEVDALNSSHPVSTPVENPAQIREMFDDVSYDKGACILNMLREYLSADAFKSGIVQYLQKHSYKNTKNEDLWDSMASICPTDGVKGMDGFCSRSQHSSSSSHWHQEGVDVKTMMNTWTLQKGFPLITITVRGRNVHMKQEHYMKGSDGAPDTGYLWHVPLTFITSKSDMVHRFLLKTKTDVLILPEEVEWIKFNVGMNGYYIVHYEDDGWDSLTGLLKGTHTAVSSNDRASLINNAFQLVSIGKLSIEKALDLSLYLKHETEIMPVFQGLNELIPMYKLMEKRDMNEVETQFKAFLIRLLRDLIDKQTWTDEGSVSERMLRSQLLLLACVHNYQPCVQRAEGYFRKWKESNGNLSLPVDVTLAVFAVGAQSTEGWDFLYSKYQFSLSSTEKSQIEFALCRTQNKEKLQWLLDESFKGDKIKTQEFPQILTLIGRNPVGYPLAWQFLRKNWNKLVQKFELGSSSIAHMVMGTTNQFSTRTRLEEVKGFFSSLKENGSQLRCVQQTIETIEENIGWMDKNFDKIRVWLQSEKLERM
Method in brief: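 Purified ERAP1(37-941)-10His in 25 mM Bis-tris propane, 0.05% HPMC, pH 7.75, with compound, then 100 μM 10-mer WRVYEKC(Dnp)ALK or 240 μM L-AMC added (stock concentrations before 1:1 mixing), 1 h at 23 °C. Fluorescence read at ex 279/em 355 nm (10-mer) or ex 365/em 442 nm (L-AMC); IC50 from 4-parameter fit.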

SMILES | IC50 [nM]
N#Cc1cc(NS(=O)(=O)c2cc(C(=O)O)ccc2C2CC2)c(O[C@H]2C[C@@H](C#N)C2)cc1Cl [Example 53, 3-(N-(4-chloro-5-cyano-2-(cis-3-cyanocyclobutoxy)phenyl)sulfamoyl)-4-cyclopropylbenzoic acid] | 1 to 5
C#CC1(Oc2cc(Cl)c(C#N)cc2NS(=O)(=O)c2cc(C(=O)O)ccc2C2CC2)CCC1 [Example 54, 3-(N-(4-chloro-5-cyano-2-(1-ethynylcyclobutoxy)phenyl)sulfamoyl)-4-cyclopropylbenzoic acid] | 1 to 5
N#Cc1cc(NS(=O)(=O)c2cc(C(=O)O)ccc2C2CC2)c(O[C@H]2C[C@H](C#N)C2)cc1Cl [Example 55, 3-(N-(4-chloro-5-cyano-2-(trans-3-cyanocyclobutoxy)phenyl)sulfamoyl)-4-cyclopropylbenzoic acid] | 1 to 5
N#Cc1cc(NS(=O)(=O)c2cc(C(=O)O)ccc2C2CC2)c(OC2CCC23CC3)cc1Cl (stereo not shown) [Example 56, 3-(N-(4-chloro-5-cyano-2-(spiro[2.3]hexan-4-yloxy)phenyl)sulfamoyl)-4-cyclopropylbenzoic acid] | < 1
CC1(C)CCC[C@@H]1Oc1cc(Cl)c(C#N)cc1NS(=O)(=O)c1cc(C(=O)O)ccc1C1CC1 [Example 57, (S)−3-(N-(4-chloro-5-cyano-2-((2,2-dimethylcyclopentyl)oxy)phenyl)sulfamoyl)-4-cyclopropylbenzoic acid] | < 1
N#Cc1cc(NS(=O)(=O)c2cc(C(=O)O)ccc2C2CC2)c(OCC2(F)CCC2)cc1Cl [Example 58, 3-(N-(4-chloro-5-cyano-2-((1-fluorocyclobutyl)methoxy)phenyl)sulfamoyl)-4-cyclopropylbenzoic acid] | < 1
Cc1oncc1-c1cc(NS(=O)(=O)c2cc(C(=O)O)ccc2C2CC2)c(OC2CCC2)cc1Cl [Example 60, 3-(N-(4-chloro-2-cyclobutoxy-5-(5-methylisoxazol-4-yl)phenyl)sulfamoyl)-4-cyclopropylbenzoic acid] | < 1
Cc1oncc1-c1cc(NS(=O)(=O)c2cc(C(=O)O)ccc2C2CC2)c(OC2CC(F)(F)C2)cc1Cl [Example 61, 3-(N-(4-chloro-2-(3,3-difluorocyclobutoxy)-5-(5-methylisoxazol-4-yl)phenyl)sulfamoyl)-4-cyclopropylbenzoic acid] | < 1
CC1(Oc2cc(Cl)c(C#N)cc2NS(=O)(=O)c2cc(C(=O)O)ccc2C2CC2)CCC1 [Example 62, 3-(N-(4-chloro-5-cyano-2-(1-methylcyclobutoxy)phenyl)sulfamoyl)-4-cyclopropylbenzoic acid] | < 1
CC1(C)CCC[C@H]1Oc1cc(Cl)c(C#N)cc1NS(=O)(=O)c1cc(C(=O)O)ccc1C1CC1 [Example 63, (R)-3-(N-(4-chloro-5-cyano-2-((2,2-dimethylcyclopentyl)oxy)phenyl)sulfamoyl)-4-cyclopropylbenzoic acid] | < 1
N#Cc1cc(NS(=O)(=O)c2cc(C(=O)O)ccc2C2CC2)c(OC2CCC3(CC3)C2)cc1Cl (stereo not shown) [Example 64, 3-(N-(4-chloro-5-cyano-2-(spiro[2.4]heptan-5-yloxy)phenyl)sulfamoyl)-4-cyclopropylbenzoic acid] | < 1
N#Cc1cc(NS(=O)(=O)c2cc(C(=O)O)ccc2C2CC2)c(OCC23COC(C2)C3)cc1Cl [Example 65, 3-(N-(2-((2-oxabicyclo[2.1.1]hexan-4-yl)methoxy)-4-chloro-5-cyanophenyl)sulfamoyl)-4-cyclopropylbenzoic acid] | 1 to 5
N#Cc1cc(NS(=O)(=O)c2cc(C(=O)O)ccc2C2CC2)c(OC2COC2)cc1Cl [Example 66, 3-(N-(4-chloro-5-cyano-2-(oxetan-3-yloxy)phenyl)sulfamoyl)-4-cyclopropylbenzoic acid] | > 5
N#Cc1cc(NS(=O)(=O)c2c(C3CC3)ccc(C(=O)O)c2F)c(OC2CCCC2)cc1Cl [Example 67, 3-(N-(4-chloro-5-cyano-2-(cyclopentyloxy)phenyl)sulfamoyl)-4-cyclopropyl-2-fluorobenzoic acid] | > 5
CO[C@H]1C[C@@H](Oc2cc(Cl)c(C#N)cc2NS(=O)(=O)c2cc(C(=O)O)ccc2C2CC2)C1 [Example 68, 3-(N-(4-chloro-5-cyano-2-(cis-3-methoxycyclobutoxy)phenyl)sulfamoyl)-4-cyclopropylbenzoic acid] | 1 to 5
N#Cc1cc(NS(=O)(=O)c2cc(C(=O)O)ccc2C2CC2)c(OC2CCCC23CC3)cc1Cl (stereo not shown) [Example 69, 3-(N-(4-chloro-5-cyano-2-(spiro[2.4]heptan-4-yloxy)phenyl)sulfamoyl)-4-cyclopropylbenzoic acid] | < 1
C[C@H](Oc1cc(Cl)c(C#N)cc1NS(=O)(=O)c1cc(C(=O)O)ccc1C1CC1)C1CCC1 [Example 70, (S)-3-(N-(4-chloro-5-cyano-2-(1-cyclobutylethoxy)phenyl)sulfamoyl)-4-cyclopropylbenzoic acid] | < 1

SMILES | IC50 [nM]
N#Cc1cc(NS(=O)(=O)c2cc(C(=O)O)ccc2C2CC2)c(O[C@H]2C[C@@H](F)C2)cc1Cl [Example 71, 3-(N-(4-chloro-5-cyano-2-(cis-3-fluorocyclobutoxy)phenyl)sulfamoyl)-4-cyclopropylbenzoic acid] | < 1
N#Cc1cc(NS(=O)(=O)c2cc(C(=O)O)ccc2C2CC2)c(O[C@@H]2CCC[C@@H]2F)cc1Cl [Example 73, 3-(N-(4-chloro-5-cyano-2-(((1R,2S)-2-fluorocyclopentyl)oxy)phenyl)sulfamoyl)-4-cyclopropylbenzoic acid] | < 1
CC1(C)CC(COc2cc(Cl)c(C#N)cc2NS(=O)(=O)c2cc(C(=O)O)ccc2C2CC2)C1 [Example 75, 3-(N-(4-chloro-5-cyano-2-((3,3-dimethylcyclobutyl)methoxy)phenyl)sulfamoyl)-4-cyclopropylbenzoic acid] | 1 to 5
N#Cc1cc(NS(=O)(=O)c2cc(C(=O)O)ccc2C2CC2)c(OCC23CC(C2)C3)cc1Cl [Example 76, 3-(N-(2-(bicyclo[1.1.1]pentan-1-ylmethoxy)− 4-chloro-5-cyanophenyl)sulfamoyl)-4-cyclopropylbenzoic acid] | < 1
N#Cc1cc(NS(=O)(=O)c2cc(C(=O)O)ccc2C2CC2)c(OC2CCC23CCC3)cc1Cl (stereo not shown) [Example 77, 3-(N-(4-chloro-5-cyano-2-(spiro[3.3]heptan-1-yloxy)phenyl)sulfamoyl)-4-cyclopropylbenzoic acid] | < 1
C[C@@H](Oc1cc(Cl)c(C#N)cc1NS(=O)(=O)c1cc(C(=O)O)ccc1C1CC1)C1CCC1 [Example 78, (R)-3-(N-(4-chloro-5-cyano-2-(1-cyclobutylethoxy)phenyl)sulfamoyl)-4-cyclopropylbenzoic acid] | < 1
N#Cc1cc(NS(=O)(=O)c2cc(C(=O)O)ccc2C2CC2)c(OCC23C4C5C6C4C2C6C53)cc1Cl (stereo not shown) [Example 79, 3-(N-(4-chloro-2-(cuban-1-ylmethoxy)-5-cyanophenyl)sulfamoyl)-4-cyclopropylbenzoic acid] | < 1
CC1(C)CCC1Oc1cc(Cl)c(C#N)cc1NS(=O)(=O)c1cc(C(=O)O)ccc1C1CC1 (stereo not shown) [Example 80, 3-(N-(4-chloro-5-cyano-2-(2,2-dimethylcyclobutoxy)phenyl)sulfamoyl)-4-cyclopropylbenzoic acid] | < 1
CC1(Oc2cc(Cl)c(C#N)cc2NS(=O)(=O)c2cc(C(=O)O)ccc2C2CC2)CCCC1 [Example 81, 3-(N-(4-chloro-5-cyano-2-((1-methylcyclopentyl)oxy)phenyl)sulfamoyl)-4-cyclopropylbenzoic acid] | < 1
N#Cc1cc(NS(=O)(=O)c2cc(C(=O)O)ccc2C2CC2)c(OCC2(C#N)CCC2)cc1Cl [Example 82, 3-(N-(4-chloro-5-cyano-2-((1-cyanocyclobutyl)methoxy)phenyl)sulfamoyl)-4-cyclopropylbenzoic acid] | < 1
N#Cc1cc(NS(=O)(=O)c2cc(C(=O)O)ccc2C2CC2)c(OC2CCCC2(F)F)cc1Cl (stereo not shown) [Example 83, 3-(N-(4-chloro-5-cyano-2-((2,2-difluorocyclopentyl)oxy)phenyl)sulfamoyl)-4-cyclopropylbenzoic acid] | < 1
COC1(COc2cc(Cl)c(C#N)cc2NS(=O)(=O)c2cc(C(=O)O)ccc2C2CC2)CCC1 [Example 87, 3-(N-(4-chloro-5-cyano-2-((1-methoxycyclobutyl)methoxy)phenyl)sulfamoyl)-4-cyclopropylbenzoic acid] | < 1
CO[C@H]1C[C@H](Oc2cc(Cl)c(C#N)cc2NS(=O)(=O)c2cc(C(=O)O)ccc2C2CC2)C1 [Example 95, 3-(N-(4-chloro-5-cyano-2-(trans-3-methoxycyclobutoxy)phenyl)sulfamoyl)-4-cyclopropylbenzoic acid] | > 5
N#Cc1cc(NS(=O)(=O)c2cc(C(=O)O)ccc2C2CC2)c(O[C@H]2C[C@H](O)C2)cc1Cl [Example 96, 3-(N-(4-chloro-5-cyano-2-(trans-3-hydroxycyclobutoxy)phenyl)sulfamoyl)-4-cyclopropylbenzoic acid] | < 1
N#Cc1cc(NS(=O)(=O)c2cc(C(=O)O)ccc2C2CC2)c(O[C@@H]2CCC[C@H]2O)cc1Cl [Example 97, 3-(N-(4-chloro-5-cyano-2-(((1R,2R)−2-hydroxycyclopentyl)oxy)phenyl)sulfamoyl)-4-cyclopropylbenzoic acid] | < 1
CC1(C)CC(C)(C)C1Oc1cc(Cl)c(C#N)cc1NS(=O)(=O)c1cc(C(=O)O)ccc1C1CC1 [Example 101, 3-(N-(4-chloro-5-cyano-2-(2,2,4,4-tetramethylcyclo-butoxy)phenyl)sulfamoyl)-4-cyclopropylbenzoic acid] | > 5
CO[C@@H]1CCC[C@H]1Oc1cc(Cl)c(C#N)cc1NS(=O)(=O)c1cc(C(=O)O)ccc1C1CC1 [Example 109, 3-(N-(4-chloro-5-cyano-2-(((1R,2R)-2-methoxycyclopentyl)oxy)phenyl)sulfamoyl)-4-cyclopropylbenzoic acid] | < 1
